Test results published in ChEMBL document CHEMBL3880382, “TRH-like peptide derivatives as inhibitors of the TRH-degrading ectoenzyme” (2010).
The source made the active and inactive calls. The rule behind the calls is not given here. Non-standard residues stand in square brackets, D forms with d. Residues, ends and D or L forms follow the SMILES beside them. *: point of attachment. pGlu = O=C1CC[C@@H](C(=O)O)N1; NHBn = c1ccc(CN*)cc1

Experiments:
[1] = molecular target: T1, Thyrotropin releasing hormone degrading enzyme (Sus scrofa) (UniProt A0A287AP33); experiment: Substrate activity at pig brain TRH-DE assessed as retention time at 1 mM incubated for 18 hrs by HPLC analysis
[2] = molecular target: Thyrotropin releasing hormone degrading enzyme (Sus scrofa, UniProt A0A287AP33); experiment: Inhibition of pig brain TRH-DE using Glp-His-ProAMC as substrate by DPP-4-based continuous fluorometric method
[3] = molecular target: T1, Thyrotropin releasing hormone degrading enzyme (Sus scrofa); experiment: Substrate activity at pig brain TRH-DE assessed as Vmax to Km ratio
[4] = molecular target: T1, Thyrotropin releasing hormone degrading enzyme (Sus scrofa); experiment: Substrate activity at pig brain TRH-DE assessed as rate of hydrolysis at 1 mM incubated for 18 hrs by HPLC analysis
[5] = molecular target: T1, Thyrotropin releasing hormone degrading enzyme (Sus scrofa); experiment: Reversible inhibition of pig brain TRH-DE using Glp-His-ProAMC as substrate at 160 uM preincubated for 75 mins by DPP-4-based continuous fluorometric method
Rattus norvegicus [6] = experiment: In vivo inhibition of TRH-DE in cannulated Wistar rat assessed as increase in TRH-mediated locomotion at 5 ug in 1 ul, icv after 30 mins; format: functional, organism-based
Rattus norvegicus [7] = experiment: In vivo inhibition of TRH-DE in cannulated Wistar rat assessed as TRH-mediated increase in locomotion at 10 mg/kg, ip measured every 5 mins for 30 secs during 40 mins of observation period; format: functional, organism-based
[8] = molecular target: T1, Thyrotropin releasing hormone degrading enzyme (Sus scrofa); experiment: Competitive inhibition of pig brain TRH-DE at 12.5 to 50 uM using Glp-His-ProAMC as substrate by Lineweaver-Burk analysis
[9] = molecular target: T1, Thyrotropin releasing hormone degrading enzyme (Sus scrofa); experiment: Inhibition of pig brain TRH-DE at 1 mM using Glp-His-ProAMC as substrate by DPP-4-based continuous fluorometric method
[10] = molecular target: T2, Thyrotropin-releasing hormone receptor (Rattus norvegicus, UniProt Q01717); experiment: Displacement of [3H]-3MeHis-TRH from TRH receptor in Sprague-Dawley rat cortical membranes
T2 sequence (Q01717 whole entry): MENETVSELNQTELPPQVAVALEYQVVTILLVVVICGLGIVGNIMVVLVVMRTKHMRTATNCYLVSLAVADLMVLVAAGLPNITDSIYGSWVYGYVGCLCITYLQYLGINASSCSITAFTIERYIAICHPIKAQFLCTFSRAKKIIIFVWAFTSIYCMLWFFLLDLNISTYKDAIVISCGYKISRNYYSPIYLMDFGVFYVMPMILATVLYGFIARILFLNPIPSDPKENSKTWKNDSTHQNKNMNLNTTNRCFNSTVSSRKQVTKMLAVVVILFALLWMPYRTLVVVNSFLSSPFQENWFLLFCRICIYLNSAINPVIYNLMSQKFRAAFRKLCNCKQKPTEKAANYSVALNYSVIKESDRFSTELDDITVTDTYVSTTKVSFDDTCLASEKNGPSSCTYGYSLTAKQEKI

[11] = molecular target: T1, Thyrotropin releasing hormone degrading enzyme (Sus scrofa); experiment: Reversible inhibition of pig brain TRH-DE using Glp-His-ProAMC as substrate at 400 uM preincubated for 75 mins by DPP-4-based continuous fluorometric method

T1 sequence (A0A287AP33 as listed by the source): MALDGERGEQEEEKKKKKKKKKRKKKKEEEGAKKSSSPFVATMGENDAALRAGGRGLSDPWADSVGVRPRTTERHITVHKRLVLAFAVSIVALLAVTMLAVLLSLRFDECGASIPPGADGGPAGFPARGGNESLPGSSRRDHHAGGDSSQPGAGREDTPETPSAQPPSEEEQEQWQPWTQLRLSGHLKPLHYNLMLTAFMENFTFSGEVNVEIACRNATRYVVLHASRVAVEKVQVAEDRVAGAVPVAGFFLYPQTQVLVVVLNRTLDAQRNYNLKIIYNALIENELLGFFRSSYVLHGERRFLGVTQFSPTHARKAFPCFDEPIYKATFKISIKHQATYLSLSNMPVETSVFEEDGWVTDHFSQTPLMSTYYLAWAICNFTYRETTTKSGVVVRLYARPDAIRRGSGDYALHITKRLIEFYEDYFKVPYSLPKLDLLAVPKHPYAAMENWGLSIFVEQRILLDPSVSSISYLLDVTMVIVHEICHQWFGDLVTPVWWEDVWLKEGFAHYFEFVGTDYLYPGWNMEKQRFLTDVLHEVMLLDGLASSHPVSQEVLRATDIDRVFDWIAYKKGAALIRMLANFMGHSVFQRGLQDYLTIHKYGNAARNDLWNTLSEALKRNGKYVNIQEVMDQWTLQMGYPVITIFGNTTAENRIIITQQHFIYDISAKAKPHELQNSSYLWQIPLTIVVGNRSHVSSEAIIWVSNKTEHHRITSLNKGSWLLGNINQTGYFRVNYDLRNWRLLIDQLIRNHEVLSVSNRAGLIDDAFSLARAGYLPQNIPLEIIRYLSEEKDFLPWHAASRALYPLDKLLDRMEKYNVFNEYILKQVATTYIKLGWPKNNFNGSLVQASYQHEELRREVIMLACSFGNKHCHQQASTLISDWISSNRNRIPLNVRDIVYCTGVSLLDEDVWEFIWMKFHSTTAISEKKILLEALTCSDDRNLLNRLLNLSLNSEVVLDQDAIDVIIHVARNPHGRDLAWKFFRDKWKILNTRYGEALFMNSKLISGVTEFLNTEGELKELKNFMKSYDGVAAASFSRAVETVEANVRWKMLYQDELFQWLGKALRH
Thyrotropin releasing hormone degrading enzyme, sequence (A0A287AP33 whole entry): as the sequence (A0A287AP33 as listed by the source) above

NC(=O)C[C@H](NC(=O)[C@@H]1CCC(=O)N1)C(=O)N1CCC[C@H]1C(=O)NC(=O)C1CCCc2ccccc21 (some centres not stated)
Retention time [1]: 18.4 min | Ki [2]: 22.4 µM

NC(=O)C[C@H](NC(=O)[C@@H]1CCC(=O)N1)C(=O)N1CCC[C@H]1C(=O)Nc1ccccc1CO
Retention time [1]: 11.9 min | Ki [2]: 20.6 µM

COc1ccc(NC(=O)[C@@H]2CCCN2C(=O)[C@H](CC(N)=O)NC(=O)[C@@H]2CCC(=O)N2)cc1
Retention time [1]: 15 min

COc1cccc(NC(=O)[C@@H]2CCCN2C(=O)[C@H](CC(N)=O)NC(=O)[C@@H]2CCC(=O)N2)c1
Retention time [1]: 15.9 min

COc1ccccc1NC(=O)[C@@H]1CCCN1C(=O)[C@H](CC(N)=O)NC(=O)[C@@H]1CCC(=O)N1
Retention time [1]: 15.4 min

Cc1cc(=O)oc2cc(NC(=O)[C@@H]3CCCN3C(=O)[C@H](Cc3cnc[nH]3)NC(=O)[C@@H]3CCC(=O)N3)ccc12
Vmax/Km [3]: 0.04 U/mg/µM

NC(=O)[C@@H]1CCCN1C(=O)[C@H](Cc1c[nH]cn1)NC(=O)[C@@H]1CCC(=O)N1
Vmax/Km [3]: 0.08 U/mg/µM | Activity [4]: 2.54 U/mg

O=C1CC[C@@H](C(=O)N[C@@H](Cc2cnc[nH]2)C(=O)N2CCC[C@H]2C(=O)O)N1
Vmax/Km [3]: 0.01 U/mg/µM | Activity [4]: 3.38 U/mg

C[C@H](NC(=O)[C@@H]1CCC(=O)N1)C(=O)N1CCC[C@H]1C(N)=O ([pGlu]-Ala-Pro-NH2)
Activity [4]: 0.02 U/mg

N=C(N)NCCC[C@H](NC(=O)[C@@H]1CCC(=O)N1)C(=O)N1CCC[C@H]1C(N)=O ([pGlu]-Arg-Pro-NH2)
Activity [4]: 0.41 U/mg

NC(=O)C[C@H](NC(=O)[C@@H]1CCC(=O)N1)C(=O)N1CCC[C@H]1C(N)=O ([pGlu]-Asn-Pro-NH2)
inhibition [5]: Active | inhibition (Rattus norvegicus [6]): Active | inhibition (Rattus norvegicus [7]): Active | inhibition [8]: Active | inhibition [9]: 97% | Ki [10]: 7.08 µM

NC(=O)C[C@H](NC(=O)[C@@H]1CCC(=O)N1)C(=O)N1CCC[C@H]1C(=O)NCc1ccccc1 ([pGlu]-Asn-Pro-NHBn)
Retention time [1]: 14.3 min

NC(=O)[C@@H]1CCCN1C(=O)[C@H](CC(=O)O)NC(=O)[C@@H]1CCC(=O)N1 ([pGlu]-Asp-Pro-NH2)
inhibition [9]: 1%

NC(=O)CC[C@H](NC(=O)[C@@H]1CCC(=O)N1)C(=O)N1CCC[C@H]1C(N)=O ([pGlu]-Gln-Pro-NH2)
inhibition [11]: Active | inhibition [9]: 83%

NC(=O)[C@@H]1CCCN1C(=O)[C@H](CCC(=O)O)NC(=O)[C@@H]1CCC(=O)N1 ([pGlu]-Glu-Pro-NH2)
inhibition [9]: 17%

NC(=O)[C@@H]1CCCN1C(=O)CNC(=O)[C@@H]1CCC(=O)N1 ([pGlu]-Gly-Pro-NH2)
inhibition [9]: 8%

CC[C@H](C)[C@H](NC(=O)[C@@H]1CCC(=O)N1)C(=O)N1CCC[C@H]1C(N)=O ([pGlu]-Ile-Pro-NH2)
Activity [4]: 0.06 U/mg
